Measurements published in ChEMBL document CHEMBL1201862, “PubChem BioAssay data set” (2004).
Active and inactive are the calls of the source.

Columns and labels:
[1] = biological target: T1, Endoribonuclease toxin MazF (Escherichia coli K-12, UniProt P0AE70); experiment: activation of MazEF endoribonuclease cleavage – biochemical, fluorescence, single-stranded RNA substrate, uHTS hits, dose response (AID 588481); format: functional
T1 sequence (P0AE70 whole entry): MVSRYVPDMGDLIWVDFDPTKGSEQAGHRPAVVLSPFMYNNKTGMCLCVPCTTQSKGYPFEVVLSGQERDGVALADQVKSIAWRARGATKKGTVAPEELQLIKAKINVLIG

[2] = biological target: T1, Endoribonuclease toxin MazF; experiment: substrate-only fluorescence increase artefacts – biochemical, single-stranded RNase substrate, counter-screen for MazEF activator project, dose response (AID 588502); format: functional
[3] = test system: HEK293; experiment: EBV LMP1 TES2 canonical NF-kB signalling blockers – cell-based, HEK293, luciferase, cherry-pick, dose response (AID 588343); format: functional; details: Homo sapiens
[4] = luciferase reporter signal suppression in cells – H4 neuroglioma cells, luminescence, dose response (AID 1990); format: functional, cell-based
[5] = biological target: Peroxisome proliferator-activated receptor gamma/Nuclear receptor coactivator 1 (Homo sapiens, UniProt P37231); experiment: (§1) TR-FRET dose response biochemical High Throughput Screening assay for agonists of the steroid receptor coactivator 1 (SRC-1) recruitment by the peroxisome proliferator-activated receptor gamma (PPAR gamma): non-selective agonists. [Related pubchem assays (depositor defined):AID1300, AID1808, AID504735, AID631]; format: protein assay
[6] = Luminescence Cell-Based Dose Response HTS to Identify Inhibitors of 5'UTR Stem-Loop Driven Prion Protein mRNA Translation in H4 Neuroglioblastoma Cells. [Related pubchem assays: 1827 (Project Summary), 1813 (Primary HTS)]; format: functional
[7] = biological target: Peroxisome proliferator-activated receptor gamma/Nuclear receptor coactivator 3 (Homo sapiens, UniProt P37231); experiment: as §1, with “3 (SRC-3)” for “1 (SRC-1)”, “assays: 1301 (Confirmation screen.), 1048 (Primary screen.)]” for “assays (depositor defined):AID1300, AID1808, AID504735, AID631]”; format: functional
[8] = alpha-synuclein stem-loop luciferase translation blockers – H4 neuroglioma cells, luminescence, confirmation (AID 1988); format: functional, cell-based
[9] = biological target: Peroxisome proliferator-activated receptor gamma/Nuclear receptor coactivator 2 (Homo sapiens, UniProt P37231); experiment: TR-FRET dose response biochemical High Throughput Screening assay for agonists of the steroid receptor coactivator 2 (SRC-2) recruitment by the peroxisome proliferator-activated receptor gamma (PPAR gamma): non-selective agonists. [Related pubchem assays: 1297, 1032 ]; format: functional
[10] = biological target: Dual specificity tyrosine-phosphorylation-regulated kinase 1A (Rattus norvegicus, UniProt Q63470); format: biochemical, Homo sapiens
[11] = cells; format: functional
[12] = biological target: T2, Insulin-degrading enzyme (Homo sapiens, UniProt P14735); experiment: recombinant IDE activation, cell-free – biochemical, fluorescence polarization, counter-screen for IDE activator project, dose response (AID 588681)
T2 sequence (P14735 whole entry): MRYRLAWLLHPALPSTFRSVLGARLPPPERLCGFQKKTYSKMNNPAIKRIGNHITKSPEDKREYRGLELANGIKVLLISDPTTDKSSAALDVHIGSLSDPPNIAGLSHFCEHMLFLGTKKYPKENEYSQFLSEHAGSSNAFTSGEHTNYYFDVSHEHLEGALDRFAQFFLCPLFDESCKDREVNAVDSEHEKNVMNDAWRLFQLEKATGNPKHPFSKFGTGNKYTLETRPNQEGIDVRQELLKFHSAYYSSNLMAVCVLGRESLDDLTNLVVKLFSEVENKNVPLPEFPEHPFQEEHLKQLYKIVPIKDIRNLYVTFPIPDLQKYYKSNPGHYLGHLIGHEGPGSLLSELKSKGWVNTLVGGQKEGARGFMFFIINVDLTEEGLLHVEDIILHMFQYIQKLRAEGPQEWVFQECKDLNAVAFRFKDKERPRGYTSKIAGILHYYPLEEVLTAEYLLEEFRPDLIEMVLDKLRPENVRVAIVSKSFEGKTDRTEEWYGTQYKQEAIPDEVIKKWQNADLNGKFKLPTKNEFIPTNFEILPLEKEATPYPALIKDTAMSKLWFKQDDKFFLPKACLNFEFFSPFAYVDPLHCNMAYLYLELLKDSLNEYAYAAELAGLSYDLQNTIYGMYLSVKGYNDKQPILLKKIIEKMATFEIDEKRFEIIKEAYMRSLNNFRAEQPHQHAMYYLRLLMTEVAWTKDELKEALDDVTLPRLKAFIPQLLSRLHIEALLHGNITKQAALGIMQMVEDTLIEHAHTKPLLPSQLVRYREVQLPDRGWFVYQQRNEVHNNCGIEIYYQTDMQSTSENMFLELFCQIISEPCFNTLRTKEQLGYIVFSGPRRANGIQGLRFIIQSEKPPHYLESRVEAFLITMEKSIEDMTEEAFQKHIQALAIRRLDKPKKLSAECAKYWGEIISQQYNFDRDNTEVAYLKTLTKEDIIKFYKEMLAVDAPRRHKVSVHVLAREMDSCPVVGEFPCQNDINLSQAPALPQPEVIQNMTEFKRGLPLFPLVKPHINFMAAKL

[13] = biological target: T2, Insulin-degrading enzyme; experiment: cellular IDE activation of Abeta substrate cleavage – fluorescence polarization, HEK cells, dose response (AID 588439); format: functional, cell-based
[14] = test system: HEK293; experiment: membrane integrity loss in HEK cells – cell-based, fluorescence, cytotoxicity control for IDE activator project, dose response (AID 588440); format: functional; details: Homo sapiens;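 also: cytotoxicity by LDH release measuring loss of membrane integrity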
[15] = test system: HEK293; experiment: optical interference in Abeta FP readout, dose response, artefact control for IDE activator project, biochemical, fluorescence polarization (AID 588442); format: functional, cell-based; details: Homo sapiens
[16] = biological target: Cytochrome P450 2D6 (Homo sapiens, UniProt P10635);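 also: CYP2D6 member of a cytochrome P450 panel assay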
[17] = biological target: T3, Voltage-gated N-type calcium channel alpha-1B subunit/Amyloid beta A4 precursor protein-binding family A member 1 (Homo sapiens, UniProt Q00975+Q02410); format: protein assay
[18] = biological target: T3, Voltage-gated N-type calcium channel alpha-1B subunit/Amyloid beta A4 precursor protein-binding family A member 1; format: protein assay; remark: listed apart in the source
[19] = biological target: T4, Carboxy-terminal domain RNA polymerase II polypeptide A small phosphatase 1 (Homo sapiens, UniProt Q9GZU7); experiment: CTDSP1 inhibitors, concentration-response, biochemical, absorbance readout, ultra-high-throughput screen actives (AID 540297); format: functional
T4 sequence (Q9GZU7 whole entry): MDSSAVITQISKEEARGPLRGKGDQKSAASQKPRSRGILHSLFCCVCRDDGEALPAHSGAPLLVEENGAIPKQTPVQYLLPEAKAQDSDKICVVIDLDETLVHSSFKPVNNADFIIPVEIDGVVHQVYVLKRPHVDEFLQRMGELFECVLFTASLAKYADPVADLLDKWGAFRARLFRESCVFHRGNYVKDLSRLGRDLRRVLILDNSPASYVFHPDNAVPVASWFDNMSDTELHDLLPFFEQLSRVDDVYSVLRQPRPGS

T3 sequence (Q00975 whole entry): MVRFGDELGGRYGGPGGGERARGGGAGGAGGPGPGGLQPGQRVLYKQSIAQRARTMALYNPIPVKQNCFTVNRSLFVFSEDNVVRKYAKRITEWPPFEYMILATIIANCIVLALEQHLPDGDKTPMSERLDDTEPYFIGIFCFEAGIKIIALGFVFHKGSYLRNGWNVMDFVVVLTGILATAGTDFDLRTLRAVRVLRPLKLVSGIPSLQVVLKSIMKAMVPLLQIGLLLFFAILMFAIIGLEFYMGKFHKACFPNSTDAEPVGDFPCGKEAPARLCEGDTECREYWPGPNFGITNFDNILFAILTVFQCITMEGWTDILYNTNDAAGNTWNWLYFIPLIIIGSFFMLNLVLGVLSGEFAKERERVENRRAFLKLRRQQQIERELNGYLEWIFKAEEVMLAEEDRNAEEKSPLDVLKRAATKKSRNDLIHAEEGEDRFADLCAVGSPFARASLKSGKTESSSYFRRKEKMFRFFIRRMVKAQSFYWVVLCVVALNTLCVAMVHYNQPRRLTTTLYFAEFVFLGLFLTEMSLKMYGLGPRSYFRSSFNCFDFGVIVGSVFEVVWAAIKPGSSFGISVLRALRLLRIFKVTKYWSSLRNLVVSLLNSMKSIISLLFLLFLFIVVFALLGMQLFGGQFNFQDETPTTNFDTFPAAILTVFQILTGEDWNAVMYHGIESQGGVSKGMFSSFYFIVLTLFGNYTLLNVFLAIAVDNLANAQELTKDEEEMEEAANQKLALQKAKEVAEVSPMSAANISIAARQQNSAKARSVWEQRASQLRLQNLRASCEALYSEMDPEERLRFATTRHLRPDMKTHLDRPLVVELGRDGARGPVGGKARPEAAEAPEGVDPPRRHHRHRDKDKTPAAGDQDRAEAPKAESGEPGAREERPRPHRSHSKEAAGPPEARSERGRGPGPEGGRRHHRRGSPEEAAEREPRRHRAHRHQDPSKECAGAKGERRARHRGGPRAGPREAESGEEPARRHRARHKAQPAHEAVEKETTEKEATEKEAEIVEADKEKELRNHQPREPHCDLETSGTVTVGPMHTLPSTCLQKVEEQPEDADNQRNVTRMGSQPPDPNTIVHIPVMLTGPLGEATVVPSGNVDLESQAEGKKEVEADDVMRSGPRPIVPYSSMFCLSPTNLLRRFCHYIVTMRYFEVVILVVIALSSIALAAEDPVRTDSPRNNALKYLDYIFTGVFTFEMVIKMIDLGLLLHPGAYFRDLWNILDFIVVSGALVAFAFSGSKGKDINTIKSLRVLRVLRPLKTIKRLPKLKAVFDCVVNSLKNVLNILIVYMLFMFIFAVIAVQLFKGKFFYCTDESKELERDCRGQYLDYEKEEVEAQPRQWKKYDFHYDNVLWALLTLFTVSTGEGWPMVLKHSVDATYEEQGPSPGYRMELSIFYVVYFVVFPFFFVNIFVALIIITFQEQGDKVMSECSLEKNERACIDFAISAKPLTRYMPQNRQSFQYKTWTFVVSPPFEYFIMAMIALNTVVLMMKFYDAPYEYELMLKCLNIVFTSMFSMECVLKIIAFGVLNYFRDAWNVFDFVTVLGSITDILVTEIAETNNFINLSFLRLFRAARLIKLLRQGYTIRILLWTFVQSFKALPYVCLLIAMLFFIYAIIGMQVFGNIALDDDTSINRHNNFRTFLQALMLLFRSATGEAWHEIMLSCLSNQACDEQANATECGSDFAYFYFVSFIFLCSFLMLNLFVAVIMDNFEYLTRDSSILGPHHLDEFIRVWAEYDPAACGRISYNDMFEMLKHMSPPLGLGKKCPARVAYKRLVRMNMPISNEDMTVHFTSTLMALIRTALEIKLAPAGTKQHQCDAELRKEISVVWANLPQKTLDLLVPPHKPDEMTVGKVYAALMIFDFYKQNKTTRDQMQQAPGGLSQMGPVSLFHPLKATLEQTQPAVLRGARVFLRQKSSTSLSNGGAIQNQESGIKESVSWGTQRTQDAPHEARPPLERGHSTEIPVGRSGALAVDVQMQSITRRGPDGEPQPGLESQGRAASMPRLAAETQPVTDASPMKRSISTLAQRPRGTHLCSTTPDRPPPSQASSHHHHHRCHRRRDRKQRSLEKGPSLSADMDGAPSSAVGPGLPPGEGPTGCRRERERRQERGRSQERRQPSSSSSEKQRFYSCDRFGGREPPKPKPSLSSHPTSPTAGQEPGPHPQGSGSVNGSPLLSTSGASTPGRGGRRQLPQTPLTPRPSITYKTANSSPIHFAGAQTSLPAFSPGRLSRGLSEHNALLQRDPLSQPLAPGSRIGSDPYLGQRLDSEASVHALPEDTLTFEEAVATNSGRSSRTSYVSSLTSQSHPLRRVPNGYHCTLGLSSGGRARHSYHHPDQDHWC
T3 sequence (Q02410 whole entry): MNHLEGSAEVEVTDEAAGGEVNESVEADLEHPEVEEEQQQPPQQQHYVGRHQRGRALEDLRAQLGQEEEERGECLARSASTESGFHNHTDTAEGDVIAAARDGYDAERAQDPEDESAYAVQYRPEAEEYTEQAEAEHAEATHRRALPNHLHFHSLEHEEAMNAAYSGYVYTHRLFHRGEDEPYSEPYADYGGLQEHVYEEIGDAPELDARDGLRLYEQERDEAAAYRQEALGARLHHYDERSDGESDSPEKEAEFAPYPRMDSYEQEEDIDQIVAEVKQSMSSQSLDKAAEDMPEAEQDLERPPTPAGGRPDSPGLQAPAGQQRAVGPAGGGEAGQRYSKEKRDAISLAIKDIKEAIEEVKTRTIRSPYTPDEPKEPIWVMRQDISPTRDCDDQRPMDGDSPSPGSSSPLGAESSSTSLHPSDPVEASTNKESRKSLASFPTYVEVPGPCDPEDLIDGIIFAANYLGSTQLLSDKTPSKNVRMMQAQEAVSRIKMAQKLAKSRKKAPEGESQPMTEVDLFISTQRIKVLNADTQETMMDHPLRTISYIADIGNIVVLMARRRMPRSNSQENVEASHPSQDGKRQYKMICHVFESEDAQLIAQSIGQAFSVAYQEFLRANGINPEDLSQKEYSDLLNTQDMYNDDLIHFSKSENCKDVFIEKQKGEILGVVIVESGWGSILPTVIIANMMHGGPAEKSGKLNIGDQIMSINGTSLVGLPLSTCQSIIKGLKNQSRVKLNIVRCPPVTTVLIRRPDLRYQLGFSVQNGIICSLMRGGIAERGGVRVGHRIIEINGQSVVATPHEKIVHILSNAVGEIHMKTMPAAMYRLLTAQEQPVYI
Chain of Peroxisome proliferator-activated receptor gamma/Nuclear receptor coactivator 3 (P37231 whole entry): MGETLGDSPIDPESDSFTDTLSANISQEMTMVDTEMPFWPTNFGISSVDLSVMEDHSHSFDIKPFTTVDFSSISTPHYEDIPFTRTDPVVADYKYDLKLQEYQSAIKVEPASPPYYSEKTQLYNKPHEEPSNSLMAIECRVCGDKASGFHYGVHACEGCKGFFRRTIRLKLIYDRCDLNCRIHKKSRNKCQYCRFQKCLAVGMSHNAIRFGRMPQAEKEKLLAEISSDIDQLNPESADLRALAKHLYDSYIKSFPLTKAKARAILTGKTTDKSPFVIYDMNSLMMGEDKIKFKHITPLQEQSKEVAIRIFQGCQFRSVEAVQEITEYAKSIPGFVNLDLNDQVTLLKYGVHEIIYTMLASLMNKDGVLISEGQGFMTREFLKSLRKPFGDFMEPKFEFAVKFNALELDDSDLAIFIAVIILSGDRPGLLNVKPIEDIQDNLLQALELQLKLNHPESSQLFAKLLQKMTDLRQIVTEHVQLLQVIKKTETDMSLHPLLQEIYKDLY
Chain of Peroxisome proliferator-activated receptor gamma/Nuclear receptor coactivator 3 (Q9Y6Q9 whole entry, further chain): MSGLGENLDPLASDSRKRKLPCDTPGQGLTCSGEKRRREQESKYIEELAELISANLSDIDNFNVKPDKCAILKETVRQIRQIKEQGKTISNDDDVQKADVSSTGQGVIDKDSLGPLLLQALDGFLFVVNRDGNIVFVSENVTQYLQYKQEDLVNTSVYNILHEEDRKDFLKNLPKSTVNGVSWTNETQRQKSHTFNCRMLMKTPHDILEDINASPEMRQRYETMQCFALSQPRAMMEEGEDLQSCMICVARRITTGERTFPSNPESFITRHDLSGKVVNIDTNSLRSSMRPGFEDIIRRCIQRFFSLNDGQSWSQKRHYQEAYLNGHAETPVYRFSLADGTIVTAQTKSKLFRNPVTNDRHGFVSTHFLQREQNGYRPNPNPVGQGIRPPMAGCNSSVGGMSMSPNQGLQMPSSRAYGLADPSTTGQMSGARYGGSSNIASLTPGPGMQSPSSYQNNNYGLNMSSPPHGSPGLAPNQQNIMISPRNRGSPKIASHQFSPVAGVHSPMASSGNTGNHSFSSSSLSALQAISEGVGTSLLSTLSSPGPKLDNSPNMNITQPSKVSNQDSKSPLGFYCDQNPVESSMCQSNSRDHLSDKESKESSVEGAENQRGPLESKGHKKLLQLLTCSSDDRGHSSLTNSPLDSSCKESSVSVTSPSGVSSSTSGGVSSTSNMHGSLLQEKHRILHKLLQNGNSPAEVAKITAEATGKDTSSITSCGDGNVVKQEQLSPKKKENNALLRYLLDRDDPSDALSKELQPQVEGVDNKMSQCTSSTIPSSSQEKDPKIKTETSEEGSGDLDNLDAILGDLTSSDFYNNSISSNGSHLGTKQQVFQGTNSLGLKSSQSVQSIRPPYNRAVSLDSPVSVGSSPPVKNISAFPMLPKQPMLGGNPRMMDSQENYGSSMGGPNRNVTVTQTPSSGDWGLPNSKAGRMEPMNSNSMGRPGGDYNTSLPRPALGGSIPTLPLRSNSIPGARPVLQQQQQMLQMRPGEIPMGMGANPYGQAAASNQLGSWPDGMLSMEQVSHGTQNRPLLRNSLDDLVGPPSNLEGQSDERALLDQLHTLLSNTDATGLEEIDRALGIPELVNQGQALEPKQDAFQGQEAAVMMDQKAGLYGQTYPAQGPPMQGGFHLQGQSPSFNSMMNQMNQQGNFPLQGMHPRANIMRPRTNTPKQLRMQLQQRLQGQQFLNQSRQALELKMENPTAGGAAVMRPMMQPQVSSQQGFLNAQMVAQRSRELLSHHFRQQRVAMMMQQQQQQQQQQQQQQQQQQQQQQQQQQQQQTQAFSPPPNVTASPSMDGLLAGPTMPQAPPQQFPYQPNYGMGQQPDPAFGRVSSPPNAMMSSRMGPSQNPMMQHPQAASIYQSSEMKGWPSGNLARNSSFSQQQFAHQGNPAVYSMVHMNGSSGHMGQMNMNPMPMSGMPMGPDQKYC

## Nc1c(C(=O)NC2CCCC2)sc2nc(-c3cccs3)ccc12
[1]
  EC50: > 99 µM (inactive)
[2]
  EC50: 54 µM (inactive)

## COc1ccccc1NC(=O)CC(c1ccc(OC(C)C)cc1)c1ccccc1OC (stereo unspecified)
[3]
  AC50: 194 µM (active)

## CCCC1O[C@@H]2CC3C4CCC5=CC(=O)C=C[C@]5(C)C4C(OC(C)=O)C[C@]3(C)[C@]2(C(=O)COC(C)=O)O1 (stereo partly specified)
[4]
  EC50: 22.1 µM (active)
[5]
  EC50: 6.65 µM (active)
[6]
  EC50: > 120 µM (not active)
[7]
  EC50: 4.66 µM (active)
[8]
  EC50: 18.8 µM (active)
[9]
  EC50: 8.71 µM (active)

## O=C1NC(=O)N(c2ccccc2)C(=O)/C1=C/c1c(-c2ccccc2)[nH]c2ccccc12
[10]
  AC50: 2.65 µM (active)

## CCCCn1c(O)c(N=Nc2ccccc2O)c2ccccc21
[1]
  EC50: 44.9 µM (inactive)
[2]
  EC50: 69.5 µM (inactive)

## Cn1c(=O)cc(SCC(=O)N2CCN(Cc3ccc4c(c3)OCO4)CC2)c2ccccc21
[5]
  EC50: > 79.4 µM (inactive)
[7]
  EC50: > 79.4 µM (not active)
[9]
  EC50: > 79.4 µM (not active)

## CC(=O)n1cc(/C=C2/N=C(c3ccccc3)OC2=O)c2ccccc21
[11]
  IC50: 4.63 µM (active)
[1]
  EC50: > 99 µM (inactive)
[2]
  EC50: > 99 µM (inactive)

## O=C1C=C(c2cccc3c2sc2ccccc23)C[C@@H](c2ccc(Cl)cc2)C1
[12]
  EC50: > 54.7 µM (inactive)
[13]
  EC50: > 54.7 µM (inactive)
[14]
  IC50: > 89.2 µM (inactive)
[15]
  EC50: > 54.7 µM (inactive)

## O=C(O)CCC(=O)c1ccc2ccc3cccc4ccc1c2c34
[16]
  AC50: inconclusive

## COc1ccc([C@@H]2CC(=O)c3c(O)cc(O[C@@H]4O[C@H](CO[C@@H]5O[C@@H](C)[C@H](O)[C@@H](O)[C@H]5O)[C@@H](O)[C@H](O)[C@H]4O)cc3O2)cc1O [HESPERIDIN]
[17]
  IC50: 9.5 µM (active)
[18]
  IC50: > 50 µM (inactive)
[19]
  IC50: 20.7 µM (active)
